# Measurements from PubChem BioAssay AID179 (DTP/NCI, 2004).
# Calls of active or inactive are those of the source.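 The calls were made as follows: active = compounds giving half or more protection of infected cells from virus-caused growth loss, again on retest; inactive = the rest.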
# System: CEM cells HIV-1 protection, formazan growth assay
# Experiment: NCI AIDS Antiviral Assay
# Conditions: for IC50: measured here: growth of uninfected CEM cells
# Summary of the method: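 Human CEM cells, uninfected and HIV-1-infected, received five drug concentrations, and growth was read by soluble formazan assay. Compounds giving at least 50% protection were retested; reproducible 100% protection defined confirmed active.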
SMILES,EC50 [µM],IC50 [µM],outcome
O=C(CC(=O)n1nc(-c2ccccc2)c(N=Nc2ccc([N+](=O)[O-])cc2)c1-c1ccccc1)Nc1ccc(Cl)cc1,> 45.7,> 45.7,
Nc1ccccc1-c1nc2ccncc2[nH]1,> 851,302,
C#CCNC(Cc1ccccc1)C(=O)O (stereo not given),> 200,> 200,
CCC12CCCN(Cc3ccccc3)C1c1c(n(C)c3ccccc13)C(CO)C2 (stereo not given),> 25.7,> 25.7,
Cc1csc2nc(-c3ccccc3)cn12,> 437,204,
Cc1ccc(C=Nc2ccc(SSc3ccc(N=Cc4ccc(C)cc4)cc3)cc2)cc1,> 200,26.3,
C1CN(CCSSCCN2CCOCC2)CCO1,> 200,166,
COC(=O)C(=O)c1cc2ccccc2n1S(=O)(=O)c1ccccc1,> 200,> 200,
Cc1cc([N+](=O)[O-])ccc1Sc1c2ccccc2nc2ccccc12,> 20.9,> 20.9,
Cc1cc2c(cc1-c1cc3c(cc1C)C(C(C)C)=C(O)C(=O)/C3=C\Nc1c3ccccc3nc3ccccc13)/C(=C/Nc1c3ccccc3nc3ccccc13)C(=O)C(O)=C2C(C)C,> 100,1.74,
CCNCC(=O)O[C@]1(CC)C(=O)OCc2c1cc1n(c2=O)Cc2cc3ccccc3nc2-1,> 10,0.0708,
CC(=O)c1ccc(Cc2ccc(C(C)=O)s2)s1,> 200,> 200,
C=C(C(=C)P(=S)(C(C)C)C(C)C)P(=S)(C(C)C)C(C)C,> 74.1,> 74.1,
CC(=O)N1C(c2[nH]c3ccccc3c2Cc2ccccc2)CCN1c1ccccc1 (stereo not given),> 200,102,
S=C(Nc1ccc(Cl)c(Cl)c1)N1c2ccccc2-n2cccc2C1c1cccnc1 (stereo not given),> 49,25.1,
Nc1nc(Cl)cc(NCC2(CO)CC(CCc3ccccc3)C2)n1 (stereo not given),> 20,14.8,
NC(=O)c1c(Cl)nc2n1CCS2,> 200,> 200,
CCN1C(=O)C(N=[N+]=[N-])(c2ccccc2)C(=O)c2ccccc21 (stereo not given),> 200,> 200,
COc1ccc(C2C(C#N)=C(N)C(C#N)=C3Oc4ccccc4N32)cc1 (stereo not given),> 200,> 200,
ON=C(C1CC1)C1CC1,> 200,> 200,
CC1OC(n2cc(F)c(=O)[nH]c2=O)C=CC1O (stereo not given),> 1020,407,
NC(=Nc1ccccc1)N/N=C/c1c[nH]c2ccccc12,> 380,0.224,

SMILES,EC50 [µM],IC50 [µM],outcome
Cc1ccc(S(=O)(=O)Nn2c(C)cc3ccc(S(=O)(=O)Nc4ccccc4[N+](=O)[O-])cc3c2=O)cc1,> 200,10.2,
Clc1cc(Cl)cc(Nc2nc3ccccc3nc2-c2cccs2)c1,> 10,> 10,
COc1c(Cl)cc(C(=CCC(=O)N[C@@H]2CC[C@@]3(C)[C@@H](CC[C@@H]4[C@@H]3CC[C@]3(C)[C@@H]([C@H](C)CCCC(C)C)CC[C@@H]43)C2)c2cc(Cl)c(OC)c(C(=O)O)c2)cc1C(=O)O,> 200,10.2,
Cc1cc(C)cc(N(C2=NCCS2)C2=NCCS2)c1,> 200,> 200,
CC(C)(C)n1[se]c2ccccc2c1=O,> 129,9.33,
O=[N+]([O-])c1cccc2c([As](=O)(O)O)cccc12,> 200,91.2,
C[n+]1cn(CC(=O)c2ccccc2)c(C(N)=O)c1N,> 263,214,
Cc1nc2nc[nH]n2c1N=Nc1ccccc1,> 200,> 200,
C[C@@](O)(/C=C/[C@H]1CC=CC(=O)O1)[C@@H](C[C@@H](O)\C=C/C=C\C=C\CO)OP(=O)(O)O,,,inactive
O=C(NCCCCCCNC(=O)c1cc(-c2ccccc2)nc2ccccc12)c1cc(-c2ccccc2)nc2ccccc12,> 200,> 200,
CN1CCN(C)P1c1ccccc1,> 1290,> 1290,
CCOC(=O)CCn1[nH]c(=O)c(Cl)c(Cl)c1=O,,,inactive
COC(=O)C(/C(=N/N)C(=O)Nc1cc(Cl)ccc1Cl)c1nc2ccc([N+](=O)[O-])cc2[nH]c1=O (stereo not given),> 138,> 138,
COc1ccc(C(C)NNC(=O)c2ccncc2)cc1OC (stereo not given),> 200,30.2,
CCOC(=O)C(=CNC(=S)Nc1c(CC)cccc1C(C)(C)C)C(=O)OCC,> 200,> 200,
NC(=O)CCNC(=O)c1ccccc1SC(=O)CCCC[n+]1ccccc1,1.95,174,
CC(=O)CCCCn1c(=O)c2c(ncn2C)n(C)c1=O,> 891,> 891,
Cc1ccc(C(=O)/C=C/c2ccc3c(c2)OCO3)cc1,> 19.5,> 19.5,
COC(=O)/C=C1\C(CO[Si](C)(C)C(C)(C)C)OC(n2cc(C)c(=O)n(C)c2=O)C1O[Si](C)(C)C(C)(C)C (stereo not given),> 200,20.9,
O=C(NP(=O)(N1CC1)N1CC1)c1cc(I)ccc1I,> 200,3.98,
COC(=O)C1[C@@H](C(=O)OC)C12C=Cc1ccccc1C=C2 (stereo not given in full),> 200,> 200,
O=C(/C=C/c1ccc2c(c1)OCO2)N1CCCCC1,,,inactive
